Test [1] deals with T1, ADALP1 (Homo sapiens, UniProt Q6DHV7).
T1 construct: gene MAPDA; N-terminal 6xHis with TEV site, tag cut; E. coli; monomer; Zn; crystals grown with trace alpha-chymotrypsin
T1 sequence (Q6DHV7 1-355): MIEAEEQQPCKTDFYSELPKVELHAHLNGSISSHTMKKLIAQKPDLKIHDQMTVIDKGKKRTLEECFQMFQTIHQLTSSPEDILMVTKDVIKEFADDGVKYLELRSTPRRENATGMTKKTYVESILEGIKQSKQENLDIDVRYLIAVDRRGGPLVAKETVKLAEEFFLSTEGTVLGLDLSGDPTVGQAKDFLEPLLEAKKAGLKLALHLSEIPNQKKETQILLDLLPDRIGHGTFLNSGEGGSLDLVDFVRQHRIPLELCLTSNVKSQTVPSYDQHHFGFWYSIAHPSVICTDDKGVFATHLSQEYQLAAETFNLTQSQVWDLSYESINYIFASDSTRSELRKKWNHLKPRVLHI
The test can be described thus: X-ray crystal structure, […] Å. Type of test: binding. Particulars: co-crystallized with AT-8003 (10 mM), pH 5.3 to 6.3; Zn2+; active site.

For test [2], the target named is T2, HINT1 (Homo sapiens, UniProt P49773).
T2 construct: N-terminal 6xHis with TEV site, tag cut; E. coli; homodimer, 126 residues visible
The test can be described thus: ITC. Type of test: binding. The note with it: 1-site model.

T2 sequence (P49773 whole entry): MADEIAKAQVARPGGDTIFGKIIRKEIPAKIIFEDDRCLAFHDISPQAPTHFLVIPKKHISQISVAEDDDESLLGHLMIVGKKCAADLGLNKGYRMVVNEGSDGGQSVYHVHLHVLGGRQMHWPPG

In the case of `C[C@@]1(F)[C@H](O)[C@@H](COP(=O)(O)O)O[C@H]1n1cnc2c(=O)[nH]c(N)nc21` [AT-8001], the “X-ray crystal structure, 2.44 Å” value in test [1] was “the product AT-8001 was found bound at the active site”. On to `Nc1ncnc2c1ncn2[C@@H]1O[C@H](COP(=O)(O)O)[C@@H](O)[C@H]1O` [AMP], for which the Ka in test [2] is 1.7 10^4.

The values above are taken from article PMC11349198, “The activation cascade of the broad-spectrum antiviral bemnifosbuvir characterized at atomic resolution” (PLOS Biology, 2024).
